In US11028068B2, “Somatostatin modulators and uses thereof” (Crinetics Pharmaceuticals, Inc., priority 2017, dated 2021):

Target: T1, human somatostatin receptor subtype 2 (Homo sapiens, UniProt P30874)
T1 construct: expressed in transfected cells; host or cells: CHO (Chinese hamster ovary) cells, cultured under G-418 selection
Experiment: cAMP assay (inhibition of cAMP activities via sst2 receptor)
Type: cell-based
Conditions: CHO cells expressing the human somatostatin receptor subtype 2, forskolin
Excerpt: General overview: All five SSTR subtypes are Gi coupled G-protein coupled receptors (GPCRs) that lead to decreases in intracellular cyclic AMP (cAMP) when activated by an agonist. Therefore, measurement of intracellular cAMP levels can be used to assess whether compounds of the invention are agonists of SSTR subtypes (John Kelly, Troy Stevens, W. Joseph Thompson, and Roland Seifert, Current Protocols in Pharmacology, 2005,2.2.1-2.2). One example of an intracellular cAMP assay is described below.
One day prior to the assay, 40,000 Chinese hamster ovary (CHO) cells expressing the human somatostatin receptor subtype 2 are plated in each well of a 96-well tissue culture plate in DM-MEM growth media (Gibco) with the following additives: 10% fetal bovine serum (Gibco), 100 U/mL penicillin (Gibco), 100 ug/mL streptomycin (Gibco), 10 mM HEPES (Gibco), 1.2 mM sodium hydroxide, 0.5 mg/mL G-418 (Gibco)). The cells are cultured overnight at 37° C., 5% CO2 and 95% humidity. On the day of the assay, the media is aspirated and the cells are washed with 1X Dulbecco's phosphate buffered saline (Gibco). Next, 5 μL of assay buffer (1× Earle's Balanced Salt Solution (Gibco), 5 mM MgCl2, 10 mM HEPES, 0.1% bovine serum albumin, 0.2 mM 3-Isobutyl-1-methylxanthine (IBMX, Biomol Research Labs)) and forskolin is added. Various dilutions of the compounds of the invention are prepared in assay buffer and 5 μL of the dilutions are added to the cultured cells and incubated for 15 minutes at 37° C. (the final concentration of the compounds of the invention are typically 0-10,000 nM). 10 μL of lysis buffer (HRTF cAMP kit, Cisbio) containing cAMP detection and visualization antibodies are added and the assay is allowed incubate for 1-24 hours at room temperature. The intracellular cAMP concentrations are then measured using a commercially available detection kit (for example, the cAMP HTRF kit, Cisbio). The measured intracellular cAMP concentrations are plotted vs. the concentration of the compounds of the invention and the EC50 of the compounds are calculated using standard methods.

T1 sequence (P30874 whole entry): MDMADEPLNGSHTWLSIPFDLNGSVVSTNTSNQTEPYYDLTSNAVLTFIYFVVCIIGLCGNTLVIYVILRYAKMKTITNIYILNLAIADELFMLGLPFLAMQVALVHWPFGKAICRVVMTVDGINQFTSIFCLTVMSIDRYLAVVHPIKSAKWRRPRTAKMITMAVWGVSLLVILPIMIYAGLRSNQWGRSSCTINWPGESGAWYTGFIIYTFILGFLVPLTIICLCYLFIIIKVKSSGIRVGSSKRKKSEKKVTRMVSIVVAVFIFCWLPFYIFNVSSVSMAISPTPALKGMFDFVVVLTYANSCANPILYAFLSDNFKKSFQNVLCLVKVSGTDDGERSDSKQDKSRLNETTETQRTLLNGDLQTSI

EC50 [nM] | SMILES
< 100 | CN(C[C@@H]1CCCN1)C(=O)c1ccnc2ccc(-c3cccc(O)c3)nc12 [Compound 3-1, 6-(3-hydroxyphenyl)-N-methyl-N-[(2S)-pyrrolidin-2-ylmethyl]-1,5-naphthyridine-4-carboxamide]
100 to 1000 | Cc1cc(F)cc(-c2cnc3ccc(N4CCCC4)nc3c2C(=O)N(C)C[C@@H]2CCCN2)c1 [Compound 3-2, 3-(3-fluoro-5-methylphenyl)-N-methyl-6-(pyrrolidin-1-yl)-N-[(2S)-pyrrolidin-2-ylmethyl]-1,5-naphthyridine-4-carboxamide]
100 to 1000 | Cc1cc(F)cc(-c2cnc3ccc(N4CCCC(O)C4)nc3c2C(=O)N(C)C[C@@H]2CCCN2)c1 (stereo partly shown) [Compound 3-3]
< 100 | CN(C[C@@H]1CCCN1)C(=O)c1c(N2CCCC2)cnc2ccc(-c3cccc(O)c3)nc12 [Compound 3-4, 6-(3-hydroxyphenyl)-N-methyl-3-(pyrrolidin-1-yl)-N-[(2S)-pyrrolidin-2-ylmethyl]-1,5-naphthyridine-4-carboxamide]
100 to 1000 | Cc1cccc(-c2cnc3ccc(-c4cccc(O)c4)nc3c2C(=O)N(C)C[C@@H]2CCCN2)n1 [Compound 3-5, 6-(3-hydroxyphenyl)-N-methyl-3-(6-methylpyridin-2-yl)-N-[(2S)-pyrrolidin-2-ylmethyl]-1,5-naphthyridine-4-carboxamide]
< 100 | CC1CN(c2cnc3ccc(-c4cccc(O)c4)nc3c2C(=O)N(C)C[C@@H]2CCCN2)CC(C)O1 (stereo partly drawn) [Compound 3-6, 3-(2,6-dimethylmorpholin-4-yl)-6-(3-hydroxyphenyl)-N-methyl-N-[(2S)-pyrrolidin-2-ylmethyl]-1,5-naphthyridine-4-carboxamide]
100 to 1000 | CC#Cc1cnc2ccc(-c3cc(F)cc(C#N)c3)nc2c1C(=O)N(C)C[C@@H]1CCCN1 [Compound 3-7, 6-(3-cyano-5-fluorophenyl)-N-methyl-3-(prop-1-yn-1-yl)-N-[(2S)-pyrrolidin-2-ylmethyl]-1,5-naphthyridine-4-carboxamide]
< 100 | Cc1cc(F)cc(-c2cnc3ccc(-c4cncc(C#N)c4)cc3c2C(=O)N(C)C[C@@H]2CCCN2)c1 [Compound 3-8, 6-(5-cyanopyridin-3-yl)-3-(3-fluoro-5-methylphenyl)-N-methyl-N-[(2S)-pyrrolidin-2-ylmethyl]quinoline-4-carboxamide]
< 100 | CN(C[C@@H]1CCCN1)C(=O)c1c(C2=CCCC2)cnc2ccc(-c3cc(F)cc(C#N)c3)nc12 [Compound 3-9, 6-(3-cyano-5-fluorophenyl)-3-(cyclopent-1-en-1-yl)-N-methyl-N-[(2S)-pyrrolidin-2-ylmethyl]-1,5-naphthyridine-4-carboxamide]
100 to 1000 | Cc1cc(F)cc(-c2cnc3ccc(-c4cnn(C)c4)cc3c2C(=O)N(C)C[C@@H]2CCCN2)c1 [Compound 3-10, 3-(3-fluoro-5-methylphenyl)-N-methyl-6-(1-methyl-1H-pyrazol-4-yl)-N-[(2S)-pyrrolidin-2-ylmethyl]quinoline-4-carboxamide]
100 to 1000 | CN(C[C@@H]1CCCN1)C(=O)c1c(N2CCCCC2)cnc2ccc(-c3cccc(O)c3)nc12 [Compound 3-11, 6-(3-hydroxyphenyl)-N-methyl-3-(piperidin-1-yl)-N-[(2S)-pyrroldin-2-ylmethyl]-1,5-naphthyridine-4-carboxamide]
100 to 1000 | CN(C[C@@H]1CCCN1)C(=O)c1c(N2CCOCC2)cnc2ccc(-c3cccc(O)c3)nc12 [Compound 3-12, 6-(3-hydroxyphenyl)-N-methyl-3-(morpholin-4-yl)-N-[(2S)-pyrrolidin-2-ylmethyl]-1,5-naphthyridine-4-carboxamide]

Continued, molecule first:

SMILES | EC50 [nM]
Cc1cc(Cl)cc(-c2cnc3ccc(-c4cccc(O)c4)cc3c2C(=O)N(C)C[C@H]2CCCN2)c1 (single isomer, unassigned) [Compound 1-5] | 39
Cc1cc(Cl)cc(-c2cnc3ccc(-c4cccc(O)c4)cc3c2C(=O)N(C)C[C@@H]2CCCN2)c1 [Compound 1-1, 3-(3-chloro-5-methylphenyl)-6-(3-hydroxyphenyl)-N-methyl-N-[(2S) -pyrrolidin-2-ylmethyl]quinoline-4-carboxamide] | 0.12
CC[C@H](N)CN(C)C(=O)c1c(-c2cc(C)cc(Cl)c2)cnc2ccc(-c3cc(O)cc(C(N)=O)c3)cc12 [Compound 1-8, N-[(25)-2-aminobutyl]-6-(3-carbamoyl-5-hydroxyphenyl)-3-(3-chloro-5-methylphenyl)-N-methylquinoline-4-carboxamide] | 100 to 1000
CN(C)C(=O)c1cccc(-c2cnc3ccc(-c4cccc(O)c4)cc3c2C(=O)N(C)C[C@@H]2CCCN2)c1 [Compound 1-73, 3-[3-(dimethylcarbamoyl)phenyl]-6-(3-hydroxyphenyl)-N-methyl-N-[(2S)-pyrrolidin-2-ylmethyl]quinoline-4-carboxamide] | 100 to 1000
Cc1cc(Cl)cc(-c2cnc3ccc(-c4cccc(O)c4)nc3c2C(=O)N(C)C[C@@H]2CCCN2)c1 [Compound 2-1, 3-(3-chloro-5-methylphenyl)-6-(3-hydroxyphenyl)-N-methyl-N-[(2S) -pyrrolidin-2-ylmethyl]-1,5-naphthyridine-4-carboxamide] | < 100
CN(C[C@@H]1CCCN1)C(=O)c1c(-c2cccc(O)c2)cnc2ccc(-c3cccc(O)c3)nc12 [Compound 2-2, 3,6-bis(3-hydroxyphenyl)-N-methyl-N-[(2S)-pyrrolidin-2-ylmethyl]-1,5-naphthyridine-4-carboxamide] | 100 to 1000
Cc1cc(Cl)cc(-c2cnc3ccc(-c4cc(O)ccc4F)nc3c2C(=O)N(C)C[C@@H]2CCCN2)c1 [Compound 2-3, 3-(3-chloro-5-methylphenyl)-6-(2-fluoro-5-hydroxyphenyl)-N-methyl-N-[(2S)-pyrrolidin-2-ylmethyl]-1,5-naphthyridine-4-carboxamide] | < 100
Cc1cc(Cl)cc(-c2cnc3ccc(-c4cc(O)cc(C#N)c4)nc3c2C(=O)N(C)C[C@@H]2CCCN2)c1 [Compound 2-4, 3-(3-chloro-5-methylphenyl)-6-(3-cyano-5-hydroxyphenyl)-N-methyl-N-[(2S)-pyrrolidin-2-ylmethyl]-1,5-naphthyridine-4-carboxamide] | 100 to 1000
CC[C@H](N)CN(C)C(=O)c1c(-c2cc(C)cc(C)c2)cnc2ccc(-c3cc(O)cc(C#N)c3)nc12 [Compound 2-5, N-[(2S)-2-aminobutyl]-6-(3-cyano-5-hydroxyphenyl)-3-(3,5-dimethylphenyl)-N-methyl-1,5-naphthyridine-4-carboxamide] | < 100
CC[C@H](N)CN(C)C(=O)c1c(-c2cc(C)cc(Cl)c2)cnc2ccc(-c3cc(O)cc(C#N)c3)nc12 [Compound 2-6, N-[(2S)-2-aminobutyl]-3-(3-chloro-5-methylphenyl)-6-(3-cyano-5-hydroxyphenyl)-N -methyl-1,5-naphthyridine-4-carboxamide] | < 100
CC[C@H](N)CN(C)C(=O)c1c(-c2cc(C)cc(F)c2)cnc2ccc(-c3cc(O)cc(C#N)c3)nc12 [Compound 2-7, N-[(2S)-2-aminobutyl]-6-(3-cyano-5-hydroxyphenyl)-3-(3-fluoro-5-methylphenyl)-N -methyl-1,5-naphthyridine-4-carboxamide] | < 100
CN(C[C@@H]1CCCN1)C(=O)c1c(-c2cccc(-n3cccn3)c2)cnc2ccc(-c3cccc(O)c3)nc12 [Compound 2-8, 6-(3-hydroxyphenyl)-N-methyl-3-[3-(1H-pyrazol-1-yl)phenyl]-N-[(2S)-pyrrolidin-2-ylmethyl]-1,5-naphthyridine-4-carboxamide] | 100 to 1000
CN(C[C@@H]1CCCN1)C(=O)c1c(-c2cccc(C#N)c2)cnc2ccc(-c3cc(F)cc(C#N)c3)nc12 [Compound 2-15, 6-(3-cyano-5-fluorophenyl)-3-(3-cyanophenyl)-N-methyl-N-[(2S)-pyrrolidin-2-ylmethyl]-1,5-naphthyridine-4-carboxamide] | 100 to 1000
CN(CC1CCCN1)C(=O)c1c(-c2cccc(CC(=O)O)c2)cnc2ccc(-c3cccc(O)c3)nc12 (stereo not shown) [Compound 2-20, 2-{3-[6-(3-hydroxyphenyl)-4-[methyl(pyrrolidin-2-ylmethyl)carbamoyl]-1,5-naphthyridin-3-yl]phenyl}acetic acid] | 100 to 1000
COC(=O)Cc1cccc(-c2cnc3ccc(-c4cccc(O)c4)nc3c2C(=O)N(C)C[C@@H]2CCCN2)c1 [Compound 2-21, methyl 2-{3-[6-(3-hydroxyphenyl)-4-{methyl[(2S)-pyrrolidin-2-ylmethyl]carbamoyl}-1,5-naphthyridin-3-yl]phenyl}acetate] | 100 to 1000
CN(C[C@@H]1CCCN1)C(=O)c1c(-c2cccc(CCC(=O)O)c2)cnc2ccc(-c3cccc(O)c3)nc12 [Compound 2-22, 3-{3-[6-(3-hydroxyphenyl)-4-{methyl[(2S)-pyrrolidin-2-ylmethyl]carbamoyl}-1,5-naphthyridin-3-yl]phenyl}propanoic acid] | 100 to 1000
